Reference: publication PMC10835127, “Viruses traverse the human proteome through peptide interfaces that can be biomimetically leveraged for drug discovery” (Proceedings of the National Academy of Sciences of the …, 2024)
Read-outs that look alike come from different tables or passages of the source.

Key:
[1] = system: influenza A H1N1 virus; conditions: 48 hr post-treatment, A549
[2] = system: EBV
[3] = system: F. novicida (strain U112); type: cell-based
[4] = system: HCV replicon; type: cell-based
[5] = system: HIV1 strain NL4-3; type: cell-based
[6] = normalized mean of EBV replication readout
[7] = normalized mean of HCV replicon readout
[8] = normalized mean of HIV1 replication readout
[9] = normalized mean of EBV replication readout, peptide screen
[10] = normalized mean of HCV replicon readout, peptide screen
[11] = normalized mean of HIV1 replication readout, peptide screen

Row | Substance | Neuraminidase activity normalized to vehicle ([1]; 200 µM peptide) | Neuraminidase activity normalized to vehicle ([1]; 0,823 µM peptide) | Neuraminidase activity normalized to vehicle ([1]; 22,2 µM peptide) | Neuraminidase activity normalized to vehicle ([1]; 2,4691 µM peptide) | Neuraminidase activity normalized to vehicle ([1]; 7,4074 µM peptide) | Neuraminidase activity normalized to vehicle ([1]; 66,6667 µM peptide) | EBV Norm MEAN [2, 6] | Francisella novicida Norm AUC [3] | HCV Norm MEAN [4, 7] | HIV1 Norm MEAN [5, 8] | EBV Norm MEAN [2, 9] | HCV Norm MEAN [4, 10] | HIV1 Norm MEAN [5, 11] | enhancement of EBV signal ([2]; 20 µM peptide, Hone-1 cells, 48 h) | EBV Norm MEAN [2] | HCV Norm MEAN [4] | HIV1 Norm MEAN [5]
1 | CPEP64: peptide of the viral peptide library; sequence page not shown (CCFHCQVCFIT) | 0,0708 | 0,8369 | 0,1905 | 0,9654 | 0,5226 | 0,0909 | 0.8807 | 0.8687 | 1.72 | 8.487 | – | – | – | – | – | – | –
2 | CPEP69: peptide of the viral peptide library; sequence page not shown (MRHIICHGGVITEE) | 1,1006 | 0,9574 | 1,0597 | 1,0075 | 1,0635 | 1,1613 | – | 1.041 | – | – | 0.4275 | 0.5472 | 0.7189 | – | – | – | –
3 | CPEP71: viral library peptide from HIV1 Integrase, targets IPO7 (WKGPAKLLWKG) | 0,1137 | 0,7606 | 1,0288 | 1,0227 | 0,9266 | 0,9918 | 2.918 | 1.748 | 0.4108 | 1.077 | – | – | – | more than 2 fold | – | – | –
4 | CPEP74: peptide of the viral peptide library; sequence page not shown (ALGISYGRKKRRQ) | 0,8907 | 0,913 | 0,9469 | 1,0192 | 0,9165 | 0,9895 | 1.663 | 1.149 | 0.6842 | 1.112 | – | – | – | – | – | – | –
5 | CPEP83: peptide of the viral peptide library; sequence page not shown (LHGLSAFSLHSYS) | 0,249 | 0,6779 | 0,9424 | 0,9223 | 0,934 | 0,7894 | 0.5883 | 1.204 | 0.4141 | 3.012 | – | – | – | – | – | – | –
6 | CPEP86: peptide of the viral peptide library; sequence page not shown (SGFGPLITHG) | 0,9563 | 0,7964 | 1,0588 | 1,0728 | 0,943 | 1,0345 | 1.554 | 0.8325 | 0.5296 | 0.7849 | – | – | – | – | – | – | –
7 | CPEP89: peptide of the viral peptide library; sequence page not shown (YDVLKAACKSVIKT) | 0,097 | 0,8515 | 0,6685 | 0,8767 | 0,7891 | 0,2057 | – | 0.9882 | – | – | 0.6285 | 1.184 | 4.725 | – | – | – | –
8 | CPEP96: peptide of the viral peptide library; sequence page not shown (GRKKRRQRRRAHQ) | 0,8043 | 0,9089 | 0,9748 | 0,9539 | 0,8942 | 0,9344 | – | 1.029 | – | – | 1.164 | 0.3919 | 0.5669 | – | – | – | –
9 | CPEP98: peptide of the viral peptide library; sequence page not shown (PLPPTKAPPIPPPR) | 1,0266 | 0,8951 | 0,9384 | 0,9959 | 0,9005 | 0,9857 | – | 1.1759 | – | – | 0.8005 | 0.3984 | 0.2763 | – | – | – | –
10 | PEPTAPPEE [CPEP147] | – | – | – | – | – | – | – | 1.176 | – | – | – | – | – | – | 0.5114 | 1.15 | 0.3632
